Paper PMC11435058, “Synthesis of New Thiazole-Privileged Chalcones as Tubulin Polymerization Inhibitors with Potential Anticancer Activities” (Pharmaceuticals, 2024)

How the values were obtained:
[1] = tested on: HT-29; parameters: method as in doi:10.1080/00397911.2021.1884262; conditions: HT-29 colorectal cancer cells; cited from earlier work
[2] = tested on: HCT-116; parameters: method as in doi:10.1080/00397911.2021.1884262; conditions: HCT-116 colorectal cancer cells; cited from earlier work
[3] = tested on: Lovo; parameters: method as in doi:10.1080/00397911.2021.1884262; conditions: Lovo colorectal cancer cells; cited from earlier work
[4] = tested on: SK-MEL-28; assay: NCI-60 anticancer screen (SRB; single dose and five doses); conditions: Homo sapiens
[5] = tested on: HS 578T; assay: as above; conditions: Homo sapiens
[6] = tested on: HT29; assay: as above; conditions: Homo sapiens
[7] = tested on: HCC-2998; assay: as above
[8] = tested on: OVCAR-5; assay: as above; conditions: Homo sapiens
[9] = tested on: BT-549; assay: as above; conditions: Homo sapiens
[10] = tested on: CAKI-1; assay: as above; conditions: Homo sapiens
[11] = tested on: UO-31; assay: as above; conditions: Homo sapiens
[12] = tested on: EKVX; assay: as above; conditions: Homo sapiens
[13] = tested on: SK-OV-3; assay: as above; conditions: Homo sapiens
[14] = tested on: tubulin; assay: In vitro tubulin polymerization inhibition assay; type: biochemical; conditions: 4 mg/mL tubulin, 37°C, absorbance at 340 nm
Protocol: 4.2.2. In Vitro Tubulin Polymerization Inhibition Assay.
2p, and the reference drug CD -4) with the microtubule system. Specifically, the in vitro inhibition of tubulin polymerization was evaluated for these compounds. The standard tubulin polymerization reaction was carried out, containing 100 μL of 4 mg/mL tubulin in a buffer solution of 80 mM PIPES (pH 6.9), 0.5 mM EGTA, 2 mM MgCl2, and 1 mM GTP. Polymerization was initiated by incubating the reaction […]
Under these conditions, polymerization typically reaches a maximum absorbance of […]
growth, and steady state. In this experimental set up, an absorbance of 0.1 at 340 nm corresponds to approximately 1 mg/mL of polymerized tubulin, meaning that around […]
40% of the tubulin is polymerized, allowing for the detection of both enhancers and inhibitors of polymerization. The inhibitory effect of each compound on tubulin polymerization was quantified by determining the IC50 values, which were reported as the mean ± standard deviation from three independent experiments. […]

[15] = tested on: IGROV1; assay: NCI-60 anticancer screen (SRB; single dose and five doses); conditions: Homo sapiens
[16] = tested on: 786-0; assay: as above; conditions: Homo sapiens
[17] = tested on: DU-145; assay: as above; conditions: Homo sapiens
[18] = tested on: UACC-62; assay: as above; conditions: Homo sapiens
[19] = tested on: TK-10; assay: as above; conditions: Homo sapiens
[20] = tested on: COLO 205; assay: as above; conditions: Homo sapiens
[21] = tested on: T-47D; assay: as above; conditions: Homo sapiens, T47D
[22] = tested on: SNB-75; assay: as above
[23] = tested on: OVCAR-4; assay: as above; conditions: Homo sapiens

Q: For `Cc1nc(-c2ccc(C(F)(F)F)cc2)sc1C(=O)/C=C/c1ccc(C(=O)O)cc1` [V], which IC50 [1] is on record?
A: The IC50 was 7.94 µM.

Q: What about the IC50 [2] of the same molecule?
A: Its IC50 is 3.12 µM.

Q: What about the IC50 [3] of the same molecule?
A: The IC50 was 2.21 µM.

Q: Which GI50 ([4]; SK-MEL-28) does the source give for `COc1ccc(/C=C\c2cc(OC)c(OC)c(OC)c2)cc1O` [CA-4, Combretastatin-A4, reference compound] here?
A: The GI50 was 3.16 µM.

Q: What about the CC50 ([4]; SK-MEL-28, read-out: LC50) of the same molecule?
A: Its CC50 is 90.8 µM.

Q: What about the IC (TGI) ([4]; SK-MEL-28, read-out: TGI) of the same molecule?
A: The IC (TGI) was 82.4 µM.

Q: And the GI50 [5]?
A: The GI50 was 0.15 µM.

Q: And the CC50 ([5]; read-out: LC50)?
A: The CC50 was greater than 100 µM.

Q: What about the IC (TGI) ([5]; read-out: TGI) of the same molecule?
A: The IC (TGI) was 0.22 µM.

Q: And the GI50 ([6]; HT-29)?
A: Its GI50 is 0.66 µM.

Q: What about the CC50 ([6]; HT-29, read-out: LC50) of the same molecule?
A: The CC50 was 38.7 µM.

Q: What about the IC (TGI) ([6]; HT-29, read-out: TGI) of the same molecule?
A: The IC (TGI) was 5.51 µM.

Q: What about the GI50 ([7]; Homo sapiens, HCC 2998) of the same molecule?
A: Its GI50 is 0.05 µM.

Q: What about the CC50 ([7]; Homo sapiens, HCC 2998, read-out: LC50) of the same molecule?
A: The CC50 was 26.9 µM.

Q: What about the TGI ([7]; five-dose, Colon Cancer HCC-2998) of the same molecule?
A: Its TGI is 1.22 µM.

Q: What about the GI50 ([8]; OVCAR-5) of the same molecule?
A: Its GI50 is 0.18 µM.

Q: And the CC50 ([8]; OVCAR-5, read-out: LC50)?
A: The CC50 was greater than 100 µM.

Q: What about the IC (TGI) ([8]; OVCAR-5, read-out: TGI) of the same molecule?
A: Its IC (TGI) is 83.2 µM.

Q: What about the GI50 ([9]; BT-549) of the same molecule?
A: Its GI50 is 0.01 µM.

Q: And the IC (TGI) ([9]; BT-549, read-out: TGI)?
A: The IC (TGI) was 8.09 µM.

Q: And the GI50 ([10]; CAKI-1)?
A: Its GI50 is 0.04 µM.

Q: And the CC50 ([10]; CAKI-1, read-out: LC50)?
A: Its CC50 is 97 µM.

Q: And the IC (TGI) ([10]; CAKI-1, read-out: TGI)?
A: The IC (TGI) was 8.22 µM.

Q: And the GI50 ([11]; UO-31)?
A: Its GI50 is 0.19 µM.

Q: What about the IC (TGI) ([11]; UO-31, read-out: TGI) of the same molecule?
A: The IC (TGI) was 4.16 µM.

Q: And the GI50 [12]?
A: Its GI50 is 0.36 µM.

Q: And the CC50 ([12]; read-out: LC50)?
A: The CC50 was greater than 100 µM.

Q: What about the IC (TGI) ([12]; read-out: TGI) of the same molecule?
A: The IC (TGI) was 82 µM.

Q: What about the GI50 ([13]; SK-OV-3) of the same molecule?
A: Its GI50 is 28.4 µM.

Q: What about the CC50 ([13]; SK-OV-3, read-out: LC50) of the same molecule?
A: The CC50 was 89.5 µM.

Q: What about the IC (TGI) ([13]; SK-OV-3, read-out: TGI) of the same molecule?
A: The IC (TGI) was 0.36 µM.

Q: What about the GI50 ([15]; IGROV-1) of the same molecule?
A: The GI50 was 0.06 µM.

Q: And the CC50 ([15]; IGROV-1, read-out: LC50)?
A: Its CC50 is greater than 100 µM.

Q: And the IC (TGI) ([15]; IGROV-1, read-out: TGI)?
A: The IC (TGI) was 63.5 µM.

Q: And the GI50 ([16]; 786-0)?
A: Its GI50 is 0.02 µM.

Q: What about the CC50 ([16]; 786-0, read-out: LC50) of the same molecule?
A: Its CC50 is greater than 100 µM.

Q: And the IC (TGI) ([16]; 786-0, read-out: TGI)?
A: Its IC (TGI) is greater than 100 µM.

Q: And the GI50 ([17]; DU-145)?
A: Its GI50 is 0.01 µM.

Q: What about the CC50 ([17]; DU-145, read-out: LC50) of the same molecule?
A: The CC50 was greater than 100 µM.

Q: What about the IC (TGI) ([17]; DU-145, read-out: TGI) of the same molecule?
A: The IC (TGI) was 78.9 µM.

Q: What about the GI50 ([18]; UACC-62) of the same molecule?
A: Its GI50 is 0.01 µM.

Q: And the IC (TGI) ([18]; UACC-62, read-out: TGI)?
A: The IC (TGI) was 80.5 µM.

Q: What about the GI50 ([19]; TK-10) of the same molecule?
A: Its GI50 is 0.57 µM.

Q: What about the CC50 ([19]; TK-10, read-out: LC50) of the same molecule?
A: The CC50 was greater than 100 µM.

Q: And the IC (TGI) ([19]; TK-10, read-out: TGI)?
A: The IC (TGI) was 11.5 µM.

Q: And the GI50 ([20]; COLO 205)?
A: The GI50 was 2.49 µM.

Q: And the CC50 ([20]; COLO 205, read-out: LC50)?
A: The CC50 was greater than 100 µM.

Q: And the IC (TGI) ([20]; COLO 205, read-out: TGI)?
A: The IC (TGI) was 43.2 µM.

Q: And the GI50 [21]?
A: Its GI50 is 48 µM.

Q: And the CC50 ([21]; read-out: LC50)?
A: Its CC50 is greater than 100 µM.

Q: What about the IC (TGI) ([21]; read-out: TGI) of the same molecule?
A: The IC (TGI) was 2.04 µM.

Q: And the GI50 ([22]; Homo sapiens, SNB-75)?
A: Its GI50 is 0.83 µM.

Q: What about the CC50 ([22]; Homo sapiens, SNB-75, read-out: LC50) of the same molecule?
A: Its CC50 is 82.4 µM.

Q: And the TGI ([22]; five-dose, CNS Cancer SNB-75)?
A: Its TGI is 24.72 µM.

Q: What about the GI50 ([23]; OVCAR-4) of the same molecule?
A: Its GI50 is 0.26 µM.

Q: What about the CC50 ([23]; OVCAR-4, read-out: LC50) of the same molecule?
A: Its CC50 is 20.2 µM.

Q: What about the IC (TGI) ([23]; OVCAR-4, read-out: TGI) of the same molecule?
A: The IC (TGI) was 0.16 µM.
